This data set in a line: Anti-hygroscopic and hygroscopic property by dynamic vapor sorption (DVS). Type of data set: physicochemical. The following applies: raw powders; DVS 37° C., 50 to 95% RH. On the procedure: For each SFD preparation prepared in Example 1 and each raw powder (Leu, Man, Tre, FlNa) in compositions, using a Dynamic Vapor Sorption measuring instrument (DVS: Dynamic Vapor Sorption; DVS advantage, Surface Measurement Systems), anti-hygroscopic property and hygroscopic growth from inhalation to the respiratory tract and deep lungs in high humidity were evaluated.
By a DVS, the mass change of a sample filled on one side of the balance-type measuring unit due to the adsorption and desorption of water in a set temperature and humidity environment can be monitored on a second scale. Regarding the setting of conditions for moisture absorption growth evaluation, to reproduce the temperature and humidity environment changes until the powder fine particles reach the deep lungs, the environment before inhalation was set to “temperature: 37° C., relative humidity (RH): 50% (absolute humidity: […])” and the lung environment after inhalation was set to “temperature: 37° C., 95% RH (absolute humidity: 41.62 g/m^3)”.
As to `CC(C)C[C@H](N)C(=O)O` [Leu, L-leucine], the mass change rate result was “about 0.08%”.

Regarding `OC[C@@H](O)[C@@H](O)[C@H](O)[C@H](O)CO` [Man, D-(−)-mannitol], the mass change rate was about 0.29%.

In the case of `OC[C@H]1O[C@H](O[C@H]2O[C@H](CO)[C@@H](O)[C@H](O)[C@H]2O)[C@H](O)[C@@H](O)[C@@H]1O` [Tre, D-(+)-trehalose], the mass change rate is reported as about 22%.

These data come from patent US20210386665A1, “INHALATION POWDER MEDICINE, EVALUATION METHOD THEREOF, AND USE THEREOF” (MEIJO UNIVERSITY EDUCATIONAL FOUNDATION, priority 2018, published 2021).
